Experimental data reported in patent US20250389728A1, “NOVEL CLASS OF TRIOXANE-BASED MS-CLEAVABLE CROSS-LINKERS TO ADVANCE PROTEIN-PROTEIN INTERACTION STUDIES USING CROSS-LINKING MASS SPECTROMETRY” (The Regents of the University of California, priority 2024, published 2025).

What was measured:
BSA = BSA (Bos taurus, UniProt P02769); experiment: TSTO cross-linking of BSA, LC-MSn
Description: The reaction was carried out for 1 h at RT, followed by quenching with ammonium bicarbonate. […] Cross-linked proteins were then digested in 8M urea buffer using LysC for 4 h at 37° C., followed by trypsin digestion at 37° C. overnight after diluting urea concentration to <1.5 M. The resulting peptide mixtures were extracted and desalted using C18 tips (Agilent) prior to MS analyses.
(§1) LC-MS^n analysis. LC-MS^n analysis of cross-linked peptides was performed using an UltiMate 3000 UPLC (Thermo Fisher Scientific) liquid chromatograph coupled on-line to an Orbitrap Fusion Lumos mass spectrometer (Thermo Fisher Scientific). Peptides were separated by reverse-phase on a 50 cm×75 μm I.D. Acclaim® PepMap RSLC column using gradients of 4% to 25% acetonitrile at a flow rate of 300 nL/min (solvent A: 100% H2O, 0.1% formic acid; solvent B: 100% acetonitrile, 0.1% formic acid) prior to MS^n analysis. For each MS^n acquisition, duty cycles consisted of one full Fourier transform scan mass spectrum (375-1500 m/z, resolution of 60,000 at m/z 400) followed by data-dependent MS^2 and MS^3 acquired at top speed in the Orbitrap and linear ion trap, respectively. Ions detected in MS^1 with 4+ or greater charge were selected and subjected to CID fragmentation (NCE 23%) in MS^2 and resulting ions were detected in the Orbitrap (resolution 30,000). Ions observed in MS^2 spectra with charge 2+ or greater were selected and fragmented in MS^3 using CID (NCE 35%) and detected in the linear ion trap in ‘Rapid’ mode. Ions selected for MS^3 were either based on abundance (top 4 or 5 most intense ions in MS^2) or targeted based on doublets with mass difference pairs (Δ=18.02 Da) corresponding to cross-linker remnant moiety water loss. For 26S proteasome cross-links, each acquisition was 200 min and ion selection for MS^3 was based on top intensity. For SEC-separated F24 fractions, the entire HpHt fraction was injected; for F26 fractions half of the HpHt fraction was injected for each LC-MS^n analysis. Each acquisition was 120 or 150 min, and both top intensity and mass difference-targeted methods were used for selecting ions for MS^3 analysis.
Spectrometric data were extracted from .raw files using PAVA. Extracted MS^3 spectra were subjected to protein database searching via Batch-Tag within a developmental version of Protein Prospector (v. 6.3.5, University of California, San Francisco) against a randomly concatenated SwissProt database consisting of 20,418 human proteins and their corresponding decoys. Mass tolerances for parent ions and fragment ions were set as ±15 ppm and 0.6 Da, respectively. Trypsin was set as the enzyme with three maximum missed cleavages allowed. Cysteine carbamidomethylation was selected as a constant modification, while protein N-terminal acetylation, methionine oxidation, and N-terminal conversion of glutamine to pyroglutamic acid were selected as variable modifications.

human 26S proteasomes = experiment: TSTO cross-linking of affinity-purified 26S proteasomes, LC-MSn
Description: Cross-linked proteins were then digested in 8M urea buffer using LysC for 4 h at 37° C., followed by trypsin digestion at 37° C. overnight after diluting urea concentration to <1.5 M. The resulting peptide mixtures were extracted and desalted using C18 tips (Agilent) prior to MS analyses.
as §1, with “MS^3 analysis. […]” for “MS^3 analysis.”

Chain of BSA (P02769 25-607): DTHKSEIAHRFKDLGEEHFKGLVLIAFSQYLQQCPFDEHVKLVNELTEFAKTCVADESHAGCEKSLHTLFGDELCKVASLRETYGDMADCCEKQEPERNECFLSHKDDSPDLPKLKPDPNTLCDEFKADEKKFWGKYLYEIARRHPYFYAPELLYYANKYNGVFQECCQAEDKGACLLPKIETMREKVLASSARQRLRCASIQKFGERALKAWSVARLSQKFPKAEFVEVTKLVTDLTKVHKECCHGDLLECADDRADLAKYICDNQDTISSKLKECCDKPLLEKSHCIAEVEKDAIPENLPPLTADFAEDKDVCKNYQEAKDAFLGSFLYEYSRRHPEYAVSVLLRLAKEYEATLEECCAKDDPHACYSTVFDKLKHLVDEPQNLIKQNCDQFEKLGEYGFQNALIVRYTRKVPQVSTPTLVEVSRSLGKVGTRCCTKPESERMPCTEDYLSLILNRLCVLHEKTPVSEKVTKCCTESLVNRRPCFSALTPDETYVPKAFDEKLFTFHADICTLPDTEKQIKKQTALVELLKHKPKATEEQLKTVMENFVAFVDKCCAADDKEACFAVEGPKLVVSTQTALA

O=C(CCCC1OC(CCCC(=O)ON2C(=O)CCC2=O)OC(CCCC(=O)ON2C(=O)CCC2=O)O1)ON1C(=O)CCC1=O (centres unmarked) [TSTO, Tris(2,5-dioxopyrrolidin-1-yl) 4,4′,4″-(1,3,5-trioxane-2,4,6-triyl)tributanoate]
redundant cross-linked spectra matches (CSMs) (BSA; 1 mM TSTO, pH 7.4 PBS, 1 h RT): 823 | unique CSMs (BSA; 1 mM TSTO, pH 7.4 PBS, 1 h RT): 167 | tri-links share of total unique CSMs (BSA; 45/167): ~27% | overall mapped distance median (Cα-Cα) (BSA; mapped to PDB:4F5S): 21.1 Å | satisfaction rate of cross-links ≤35 Å (BSA; mapped to PDB:4F5S): 90% | share of unique CSMs that were tri-links (human 26S proteasomes; 0.75 mM TSTO on-bead): 41.3% | total unique CSMs (human 26S proteasomes; 0.75 mM TSTO on-bead, PBS pH 7.5, 1 h): 808 | satisfaction rates (≤35 Å) of mapped tri-links and bi-links (human 26S proteasomes; mapped to PDB: 7QY7): ~90%
